Results taken from patent US8071625B2, “Certain chemical entities, compositions, and methods” (Cytokinetics, Inc., priority 2006, dated 2011).

Each compound was assayed against T1, crosslinked smooth muscle actomyosin (chicken gizzard smooth muscle myosin subfragment-1 crosslinked to cardiac or skeletal actin) (Gallus gallus, UniProt P10587) (assay: Lead optimization pyruvate kinase/horseradish peroxidase/pyruvate oxidase-coupled ATPase assay (compound dose response)). Settings: read-out: IC50 Arithmetic Mean.
T1 construct: chicken gizzard smooth muscle myosin subfragment-1; from tissue; host or cells: chicken gizzard
Type: biochemical
Method in brief: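 IC50 is the midpoint of a 4-parameter dose–response fit of Amplex Red fluorescence (480/615 nm). Buffer was 12 mM potassium PIPES pH 7.00 at 22 °C with 100 mM KCl, 2 mM MgCl2, 0.15 mM ATP and 2 mM phosphate, with PK/pyruvate oxidase/HRP coupling. Enzyme: smooth muscle myosin S1 crosslinked to cardiac or skeletal actin, dosed empirically by activity.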
Compound `CCc1ccc(NC(=O)OCC(C)(C)N(C)C(=O)NCc2ccccc2Cl)cc1` [{[(2-chlorophenyl)methyl]amino}-N-{2-[N-(4-ethylphenyl)carbamoyloxy]-tert-butyl}-N-methylcarboxamide] has an IC50 of 621 nM.
`CCc1ccc(NC(=O)OCCN(CCCCO)C(=O)NCc2ccccc2Cl)cc1` [{[(2-chlorophenyl)methyl]amino}-N-{2-[N-(4-ethylphenyl)carbamoyloxy]ethyl}-N-(4-hydroxybutyl) carboxamide] gave an IC50 of 355 nM.
`CCc1ccc(NC(=O)OCCN(CCNC)C(=O)NCc2ccccc2Cl)cc1` [{[(2-chlorophenyl)methyl]amino}-N-{2-[N-(4-ethylphenyl)carbamoyloxy]ethyl}-N-[2-(methylamino)ethyl]carboxamide] showed an IC50 of 16300 nM.
`CCc1ccc(NC(=O)OCCN(C)C(=O)NCc2ccccc2Cl)cc1` [{[(2-chlorophenyl)methyl]amino}-N-{2-[N-(4-ethylphenyl)carbamoyloxy]ethyl}-N-methylcarboxamide] showed an IC50 of 84 nM.
With `CCc1ccc(NC(=O)OCCCN(C)C(=O)NCc2ccccc2Cl)cc1` [{[(2-chlorophenyl)methyl]amino}-N-{3-[N-(4-ethylphenyl)carbamoyloxy]propyl}-N-methylcarboxamide] the IC50 was 1670 nM.
With `CCc1ccc(NC(=O)OCCCCN(C)C(=O)NCc2ccccc2Cl)cc1` [{[(2-chlorophenyl)methyl]amino}-N-{4-[N-(4-ethylphenyl)carbamoyloxy]butyl}-N-methylcarboxamide] the IC50 was 6070 nM.
`CCc1ccc(NC(=O)OCCN(C)C(=O)N(C)Cc2ccccc2Cl)cc1` [{[(2-chlorophenyl)methyl]methylamino}-N-{2-[N-(4-ethylphenyl)carbamoyloxy]ethyl}-N-methylcarboxamide] gave an IC50 of 2080 nM.
For “(tert-butoxy)-N-[2-(3-{N-[(2-chlorophenyl)methyl]carbamoyl}-3-{[N-(4-ethylphenyl)carbamoyloxy]methyl}piperidyl)-2-oxoethyl]carboxamide”, the IC50 was 1430 nM.
“methyl (3S)-3-amino-4-(4-{N-[(2-chlorophenyl)methyl]carbamoyl}-4-{[N-(4-ethylphenyl)carbamoyloxy]methyl}piperidyl)-4-oxobutanoate” showed an IC50 of 1120 nM.
“tert-butyl 4-[(4-{N-[(2-chlorophenyl)methyl]carbamoyl}-4-{[N-(4-ethylphenyl)carbamoyloxy]methyl}piperidyl)carbonyl]piperidinecarboxylate” gave an IC50 of 3550 nM.
